Experimental data as given in publication PMC6615598, “Novel antibiotics effective against gram-positive and -negative multi-resistant bacteria with limited resistance” (PLoS Biology, 2019).
In brackets after ≈: the same amount, converted by molar mass.

Legend:
P. aeruginosa LESB58 [1] = assay: Cutaneous abscess mouse model (CFU); format: in vivo, mice; conditions: mice, P. aeruginosa LESB58; 9 mg.kg^−1 subcutaneous multiple doses; day 3
Protocol: For the cutaneous abscess model, the mice were randomly divided into 5 sets. The mice were anesthetized with isoflurane, their dorsal fur shaved, and their skin disinfected with 70% ethanol. An overnight culture of S. aureus MRSA or P. aeruginosa LESB58 was washed with 0.9% NaCl, and then a subcutaneous injection of 2 × 10^9 CFUs and an equal amount of sterile Cytodex microcarrier beads (20 mg.ml^−1, Sigma) for S. aureus MRSA, or 10^8 CFUs for P. aeruginosa were injected into the shaved area. […] Mice were monitored every day and then euthanized with CO2 on Day 6 or on Day 3. Abscesses were excised, measured, and homogenized in PBS using an Ultra-Turax. Serial dilutions of the samples were plated on BHI (MRSA) or 2YT medium (LESB58) plates and then incubated overnight at 37°C. Afterward, the CFUs were counted and expressed as log CFU/ml. Dermonecrosis areas were calculated according to the formula π × L × W. ATP levels were determined with an ATP assay kit (Promega) according to manufacturer instructions on sets of 5 colonies harboring the SCV phenotype, and sets of 5 colonies harboring a normal phenotype, after growth on BHI plates.

P. aeruginosa LESB58 [2] = conditions: P. aeruginosa strain LESB58; biological triplicates
Protocol: (10−4 M final concentrations). At selected time intervals, 100 μl of reaction mixture was collected, quenched by 200 μl 95% EtOH, and adjusted at pH 2 to prevent peptide adsorption to serum proteins. […] Supernatants were analyzed by RP-HPLC on an Xbridge C18 column with a linear gradient of water, 0.08% TFA, and acetonitrile with 1% TFA. HPLC peak areas were used to calculate the percentages of intact compound remaining at the various time points. MIC and MBC values were determined in triplicate in many ESKAPE clinical isolates, including a dozen MDR S. aureus, by the broth microdilution method. Peptidomimetics and antibiotics were assayed in a concentration range of 1 to 128 μM. […] After every hour of culture for 4 h, serial dilutions were plated on BHI plates and incubated overnight at 37°C, and then the CFUs were counted and expressed as log CFU/ml. […]
For 15 d in MHB, MICs were determined daily for each pseudopeptide and their antibiotic controls. […] The suspension was diluted in MHB or CAMHB (10^6 cells/ml) and then used to determine the MIC of the same compound determined by micro broth dilution. […] To control compound stability, peptide solution MICs were determined during and at the end of the 15 d and were compared to cells unexposed to antibiotics. In vivo resistance was also assessed in treated mice (1.5 mg.kg^−1) for 4 d (sepsis) or 6 d (skin abscesses). […]

P. aeruginosa PA14 = conditions: P. aeruginosa PA14
Protocol: (§1) (10−4 M final concentrations). At selected time intervals, 100 μl of reaction mixture was collected, quenched by 200 μl 95% EtOH, and adjusted at pH 2 to prevent peptide adsorption to serum proteins. […] Supernatants were analyzed by RP-HPLC on an Xbridge C18 column with a linear gradient of water, 0.08% TFA, and acetonitrile with 1% TFA. HPLC peak areas were used to calculate the percentages of intact compound remaining at the various time points. MIC and MBC values were determined in triplicate in many ESKAPE clinical isolates, including a dozen MDR S. aureus, by the broth microdilution method. Peptidomimetics and antibiotics were assayed in a concentration range of 1 to 128 μM. The bacterial inoculum (5 × 10^5 colony-forming units [CFUs]/well) was prepared in MHB or CAMHB (150 μl). A Biotek Synergy 2 spectrophotometer was used to record the results after 18–20 h incubation at 35°C (±2°C). […] After every hour of culture for 4 h, serial dilutions were plated on BHI plates and incubated overnight at 37°C, and then the CFUs were counted and expressed as log CFU/ml. Phosphate-buffered saline (PBS)-exposed S. aureus MRSA was included as a control.

Escherichia coli K12 = conditions: E. coli K12
Protocol: as §1

Escherichia coli 13090 = test system: Escherichia coli 13090
Protocol: as §1

P. aeruginosa 15643 = test system: P. aeruginosa 15643
Protocol: as §1

Escherichia coli ML35P = conditions: E. coli ML35P
Protocol: as §1

S. aureus COB = assay: microbe, parasite or virus in culture; conditions: Staphylococcus aureus
Protocol: as §1
(§2) Supplementary file pbio.3000337.s007.docx: S1 Table Antibacterial activity of the 4 peptidomimetics focusing on 9 S. aureus MDR clinical isolates. Clinical isolates BCB/POE and 740404 DUN are from human sepsis. The other strains are from catheter infections or suppurating wounds. Brilacidin was used as a control. MDR, multidrug resistant. (DOCX) Click here for additional data file.

S. aureus 33845 = assay: microbe, parasite or virus in culture; conditions: Staphylococcus aureus
Protocol: as §1, §2

S. aureus PM64 = assay: microbe, parasite or virus in culture; conditions: Staphylococcus aureus, PM64
Protocol: as §1, §2

S. aureus FORT = assay: microbe, parasite or virus in culture; conditions: Staphylococcus aureus
Protocol: as §1, §2

S. aureus ROUS = assay: microbe, parasite or virus in culture; conditions: Staphylococcus aureus
Protocol: as §1, §2

S. aureus 66534 E = assay: microbe, parasite or virus in culture; conditions: Staphylococcus aureus
Protocol: as §1, §2

S. aureus 702697 HOU = assay: microbe, parasite or virus in culture; conditions: Staphylococcus aureus
Protocol: as §1, §2

S. aureus BCB/POE = assay: microbe, parasite or virus in culture; conditions: Staphylococcus aureus
Protocol: as §1, §2

S. aureus 740404 DUN = assay: microbe, parasite or virus in culture; conditions: Staphylococcus aureus
Protocol: as §1, §2

MRSA = assay: Severe sepsis mouse model, survival; format: in vivo; conditions: mice, approximately 2 × 10^9 CFUs MRSA IV; 4 IV doses of 0.5 mg.kg^−1 at 2, 24, 48, 72 h
From the text: Tolerance and toxicity studies were done on male Swiss mice (CD-1 Crl: CD-1 [ICR] IGS; Charles River). These were 7 to 10 weeks old and weighed an average of 37.2 g. All experimental protocols were approved by the Adaptive Therapeutics Animal Care and Use Committee (APAFiS #4508-2016031l15541258 v2). For the sepsis model, we used female Swiss mice (Janvier Labs), 6 to 8 weeks old and weighing approximately 30 g. Experiments were monitored in the ARCHE-BIOSIT animal lab in Rennes, in biological duplicate. We used Groups of 5 mice for the mild and the severe sepsis models with MRSA. Mice were IV inoculated with 150 μl of MRSA suspensions in 0.9% NaCl containing approximately 5 × 10^8 CFUs for the “mild” sepsis and approximately 2 × 10^9 CFUs for the “severe” sepsis, respectively. […] Mice survival was monitored for 4 d (“severe” sepsis) or 14 d (“mild” sepsis), and the statistical significance of difference(s) between the groups was evaluated using the Wilcoxon test. P < 0.05 was considered significant. Two weeks (“mild” sepsis) or 4 d (“severe” sepsis) after inoculation, mice were euthanized with CO2.

[3] = Stability in human serum (half-life); format: in vitro ADME; conditions: 25% human serum, pre-incubated 15 min at 37°C, peptide 10^−4 M, RP-HPLC peak areas, mean of biological triplicates
Protocol: as §1
(§3) Supplementary file pbio.3000337.s013.docx: S7 Table Peptide half-lives in human and mouse sera. […] Peptide amounts and half-lives were determined by HPLC. Experiments were conducted on 25% human or mouse sera. Values are shown in minutes. The mean values correspond to biological triplicates. HPLC, high pressure liquid chromatography. (DOCX) Click here for additional data file.

S. aureus Mu3 (MRSA) = assay: microbe, parasite or virus in culture
Protocol: as §1

S. aureus Newman = assay: microbe, parasite or virus in culture
Protocol: as §1

[4] = Stability in mouse serum (half-life); format: in vitro ADME; conditions: 25% mouse serum, pre-incubated 15 min at 37°C, peptide 10^−4 M, RP-HPLC peak areas, mean of biological triplicates
Protocol: as §1, §3

E. faecium Aus0004 = conditions: Aus0004
Protocol: as §1

MRSA (Mu3) [5] = assay: microbe, parasite or virus in culture
Protocol: (§4) For 15 d in MHB, MICs were determined daily for each pseudopeptide and their antibiotic controls. This was done using cells from the well in which the compound concentration was one-half of the MIC (1/2MIC). For each compound, the 1/2MIC well from the previous day’s MIC assay plate was re-suspended and the bacteria grown to a density of about 10^8 cells ml−1. The suspension was diluted in MHB or CAMHB (10^6 cells/ml) and then used to determine the MIC of the same compound determined by micro broth dilution. All MIC measurements were performed in duplicate. Aliquots of the 5 × 10^4 cell/ml dilutions for each 1/2MIC well were periodically plated on MHB and incubated at 35°C for 18 h to verify cell density by colony counts and for visual inspection of colony phenotypes. To control compound stability, peptide solution MICs were determined during and at the end of the 15 d and were compared to cells unexposed to antibiotics. In vivo resistance was also assessed in treated mice (1.5 mg.kg^−1) for 4 d (sepsis) or 6 d (skin abscesses). […] The broth microdilution method was performed as per EUCAST recommendations on 5 independent colonies per mouse (3 mice per set, 15 colonies per drug tested). For severe sepsis and subcutaneous abscesses, in vivo resistance was determined by plating aliquots of crude kidney extracts or abscesses on plates containing 1-, 2-, 4-, or 8-fold the peptide MICs 7 or 3 d post infections, respectively.

MSSA (Newman) = assay: microbe, parasite or virus in culture; conditions: Staphylococcus aureus
Protocol: as §4

S. aureus N315 (MRSA) = assay: microbe, parasite or virus in culture; conditions: Staphylococcus aureus, MRSA
Protocol: as §1

MRSA (Mu3) [6] = assay: microbe, parasite or virus in culture; conditions: Staphylococcus aureus, MRSA
Protocol: as §4

[7] = broth microdilution, 3 independent experiments

Compound: colistin
- Number of bacteria in abscess (P. aeruginosa LESB58 [1]): lowered the number of bacteria
- MIC (P. aeruginosa LESB58 [2]): 1 µM
- MBC/MIC (P. aeruginosa PA14): 2
- MIC (P. aeruginosa PA14; [7]): 0.5 (0.65) μM
- MBC/MIC (Escherichia coli K12): 1
- MIC (Escherichia coli K12; [7]): 0.5 (0.65) μM
- MBC/MIC (Escherichia coli 13090; E. coli 13090): 1
- MIC (Escherichia coli 13090; E. coli 13090, clinical strain, Caen hemoculture, broth microdilution, 3 independent experiments): 1 (1.3) μM
- MBC/MIC (P. aeruginosa 15643; P. aeruginosa 15643): 2
- MIC (P. aeruginosa 15643; P. aeruginosa 15643, clinical strain, Caen hemoculture, broth microdilution, 3 independent experiments): 0.5 (0.65) μM
- MBC/MIC (Escherichia coli ML35P): 1
- MIC (Escherichia coli ML35P; [7]): 0.5 (0.65) μM

Compound: N=C(N)NCCCCC(=O)Nc1cc(C(F)(F)F)cc(NC(=O)c2cc(C(=O)Nc3cc(C(F)(F)F)cc(NC(=O)CCCCNC(=N)N)c3O[C@@H]3CCNC3)ncn2)c1O[C@@H]1CCNC1 [brilacidin, reference compound]
- MIC (S. aureus COB): 1 µg/mL
- MIC (S. aureus 33845): 1 µg/mL
- MIC (S. aureus PM64): 1 µg/mL
- MIC (S. aureus FORT): 1 µg/mL
- MIC (S. aureus ROUS): 1 µg/mL
- MIC (S. aureus 66534 E): 1 µg/mL
- MIC (S. aureus 702697 HOU): 1 µg/mL
- MIC (S. aureus BCB/POE): 1 µg/mL
- MIC (S. aureus 740404 DUN): 1 µg/mL
- Survival in severe sepsis (MRSA): cured the infected animals

Compound: CCCCCCCCCC(=O)N[C@@H](Cc1c[nH]c2ccccc12)C(=O)N[C@H](CC(N)=O)C(=O)N[C@@H](CC(=O)O)C(=O)N[C@@H]1C(=O)NCC(=O)N[C@@H](CCCN)C(=O)N[C@@H](CC(=O)O)C(=O)N[C@H](C)C(=O)N[C@@H](CC(=O)O)C(=O)NCC(=O)N[C@H](CO)C(=O)N[C@@H]([C@H](C)CC(=O)O)C(=O)N[C@@H](CC(=O)c2ccccc2N)C(=O)O[C@@H]1C [Daptomycin, daptomycin, reference compound]
- half-life [3]: 52.3 ± 6.67 h
- MIC (S. aureus Mu3 (MRSA); Mu3): 0.5 (1) μM
- MIC (S. aureus Newman; Newman): 0.25 (0.5) μM
- half-life [4]: > 58.3 h
- MIC (E. faecium Aus0004): 0.5 (1) μM

Compound: CN[C@H](CC(C)C)C(=O)N[C@H]1C(=O)N[C@@H](CC(N)=O)C(=O)N[C@H]2C(=O)N[C@H]3C(=O)N[C@H](C(=O)N[C@H](C(=O)O)c4cc(O)cc(O)c4-c4cc3ccc4O)[C@H](O)c3ccc(c(Cl)c3)Oc3cc2cc(c3O[C@@H]2O[C@H](CO)[C@@H](O)[C@H](O)[C@H]2O[C@H]2C[C@](C)(N)[C@H](O)[C@H](C)O2)Oc2ccc(cc2Cl)[C@H]1O [Vancomycin, vancomycin]
- MIC (MRSA (Mu3) [5]; MRSA (Mu3), d14 of serial passages at sub-MIC): 1 (1.4) μM
- MIC (MRSA (Mu3) [5]; Staphylococcus aureus, MRSA): 1 µM (≈ 1.45 µg/mL)
- MIC (MSSA (Newman); MSSA (Newman), d0 of serial passages): 0.5 µM (≈ 0.725 µg/mL)
- MIC (MSSA (Newman); MSSA|NEWMAN, d14 of serial passages at sub-MIC): 1 µM (≈ 1.45 µg/mL)
- MIC (S. aureus Mu3 (MRSA); Staphylococcus aureus, MRSA): 1 µM
- MIC (S. aureus Newman; Staphylococcus aureus, NEWMAN): 0.5 µM
- MIC (S. aureus N315 (MRSA)): 2 µM
- MIC (MRSA (Mu3) [6]): 1 µM (≈ 1.45 µg/mL)
- MIC (MRSA (Mu3) [6]; 24 h): 1 µM (≈ 1.45 µg/mL)
- Survival in severe sepsis (MRSA): much less effective
